Test results as given in PMC7000685, “Loss of GFAT-1 feedback regulation activates the hexosamine pathway that modulates protein homeostasis” (Nature Communications, 2020).

Key:
human GFAT-1 [1] = molecular target: T1, human GFAT-1 (Homo sapiens, UniProt Q06210); experiment: X-ray crystal structure (co-crystallization); format: binding
T1 construct: gene GFPT1; full length isoform 2, internal His6-tag inserted between Gly299 and Asp300 (kept), initial Met removed, Sf21 baculovirus (MultiBac), Ni-NTA and SEC; phosphorylated S243 found; dimer in crystal
T1 sequence (Q06210 2-681 isoform Q06210-2): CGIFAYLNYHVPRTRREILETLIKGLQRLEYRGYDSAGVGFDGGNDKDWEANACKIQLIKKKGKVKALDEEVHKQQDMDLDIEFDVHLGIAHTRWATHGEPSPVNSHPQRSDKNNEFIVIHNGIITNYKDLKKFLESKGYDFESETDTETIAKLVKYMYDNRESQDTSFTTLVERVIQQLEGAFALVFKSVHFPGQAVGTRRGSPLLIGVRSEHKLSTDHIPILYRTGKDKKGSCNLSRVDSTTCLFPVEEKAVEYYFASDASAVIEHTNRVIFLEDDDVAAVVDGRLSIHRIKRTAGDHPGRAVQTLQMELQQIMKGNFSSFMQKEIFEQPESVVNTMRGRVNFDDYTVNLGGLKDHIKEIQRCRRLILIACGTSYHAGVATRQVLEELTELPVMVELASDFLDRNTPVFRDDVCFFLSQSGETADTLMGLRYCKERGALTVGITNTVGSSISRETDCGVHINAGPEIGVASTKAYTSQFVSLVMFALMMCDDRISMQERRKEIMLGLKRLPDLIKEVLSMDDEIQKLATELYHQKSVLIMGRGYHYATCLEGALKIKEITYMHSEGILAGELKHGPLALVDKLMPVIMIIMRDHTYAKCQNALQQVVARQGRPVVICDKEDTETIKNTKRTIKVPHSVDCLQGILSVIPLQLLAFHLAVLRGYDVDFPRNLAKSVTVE

human GFAT-1 [2] = molecular target: T1, human GFAT-1; experiment: X-ray crystal structure (crystallized with Frc6P); format: binding; settings: isomerase site; linear Glc6P modelled, Frc6P not excluded at this resolution
human GFAT-1 [3] = molecular target: T1, human GFAT-1; experiment: X-ray crystal structure (soaking); format: binding; settings: 5 mM soak, 2 h; UDP-GlcNAc site of isomerase domain; inhibition curve in the GDH-coupled assay only in Figure 4g
human GFAT-1 [4] = molecular target: T1, human GFAT-1; experiment: GDH-coupled glutaminase (amidohydrolysis) assay, […] nm; format: biochemical; settings: 10 mM L-Gln, 6 mM Frc6P, 1 mM APAD, 1 mM EDTA, 50 mM KCl, 100 mM potassium phosphate pH 7.5, 37 °C; feedback inhibitor bound at isomerase domain (allosteric)

N[C@H]1C(O)O[C@H](COP(=O)(O)O)[C@@H](O)[C@@H]1O (stereo partly drawn) [D-GlcN6P] was tested, and the “X-ray crystal structure (co-crystallization)” value (human GFAT-1 [1]; 1 mM GlcN6P, with L-Glu, linear sugar in isomerase site) was “The GlcN6P-bound structure formed the same asymmetric dimer as the Glc6P-bound structure”.
With O=P(O)(O)OC[C@H]1OC(O)[C@H](O)[C@@H](O)[C@@H]1O (some centres unmarked) [Glc6P] the “X-ray crystal structure (crystallized with Frc6P)” value (human GFAT-1 [2]) was “we decided to model the product Glc6P in our crystal structures”.
With N[C@@H](CCC(=O)O)C(=O)O [L-Glu] the “X-ray crystal structure (co-crystallization)” value (human GFAT-1 [1]; 50 mM L-Glu, glutaminase site of monomer A only) was “The product L-Glu is bound to the glutaminase active site in one monomer (monomer A)”.
For CC(=O)N[C@H]1[C@@H](OP(=O)(O)OP(=O)(O)OC[C@H]2O[C@@H](n3ccc(=O)[nH]c3=O)[C@H](O)[C@@H]2O)O[C@H](CO)[C@H](O)[C@@H]1O [UDP-GalNAc], the “X-ray crystal structure (soaking)” value (human GFAT-1 [3]) was “UDP-GalNAc was detected in the UDP-GlcNAc binding site after crystal soaking”.
CC(=O)N[C@H]1[C@@H](OP(=O)(O)OP(=O)(O)OC[C@H]2O[C@@H](n3ccc(=O)[nH]c3=O)[C@H](O)[C@@H]2O)O[C@H](CO)[C@@H](O)[C@@H]1O [UDP-GlcNAc] was tested, and the IC50 (human GFAT-1 [4]) was 43.3 (−2.3/+2.5) µM.
